Publication PMC8151732, “Thiazole–Chalcone Hybrids as Prospective Antitubercular and Antiproliferative Agents: Design, Synthesis, Biological, Molecular Docking Studies and In Silico ADME Evaluation” (Molecules, 2021)
In brackets after ≈: the same amount, converted by molar mass. Where two headings read alike, the source gives them in different places.

Experiments:
[1] = system: normal human liver cell lines (L02); test: Cytotoxic activity on normal cells, MTT assay; type: cell-based; details: for IC50: Homo sapiens, same protocol as DU-145, read-out: Normal Liver Cell Line (L02) (IC50 in µg/mL)
Procedure: (§1) In both the assays, the IC50 values of the tested compounds were compared with the positive control Methotrexate (Mtx). The reduction of the soluble MTT to blue-color formazan is the principle underlined in MTT assay and such change is chiefly due to the action of intracellular mitochondrial reductase in the living cells. […] Later, the desired concentrations of the compounds were achieved by dissolving in sterile water. The cells were transferred on to 96-well plates at 100 µL total volume and with a density of 1 × 10^4 cells per well. The cells were permitted to adhere for a period of 24 h and then the assay medium was replaced with a fresh medium containing target compounds and incubated in DMEM with 10% fetal bovine serum (FBS) medium at 37 °C for an additional 48 h. Later, the medium was replaced with 90 μL of fresh DMEM without FBS. The above wells were treated with 10 μL of MTT reagent (5 mg/mL of stock solution in DMEM without FBS) and incubated for 3–4 h at 37 °C. The formed blue formazan crystals were dissolved in 200 μL of DMSO. The optical density was then determined at 570 nm using a micro plate reader. The assay was executed in triplicate for three independent experiments. […] The IC50 values measured in µg/mL for the antiproliferative were converted and expressed in µM. Additionally, all the compounds were also assessed for their cytotoxic activity on the normal human liver cell lines (L02) using the same protocol discussed above.

[2] = system: prostate cancer cell line (DU-145); test: Antiproliferative activity, MTT assay; details: mean ± SD (n = 3), converted from µg/mL
Procedure: as §1

[3] = system: Mycobacterium tuberculosis H37Rv strain; test: Antitubercular activity, broth dilution MIC; type: cell-based; details: for MIC: Mycobacterium tuberculosis, H37RV, 504 h, read-out: Mtb (H37Rv Strain) (MIC in µM); for MIC / Mtb (H37Rv Strain) (MIC in µM): broth dilution, 21 days at 37 °C, mean of three independent experiments, converted from µg/mL; for antitubercular activity of F compounds over the Cl-containing compounds: MIC 20.68 µM (9, 11) vs. 78.46 µM (1, 3); for antitubercular potency relative to the standard pyrazinamide: ratio of MICs, pyrazinamide MIC 25.34 ± 2 µM
[4] = Homo sapiens, DU-145, 48 h, read-out: Prostate Cancer Cell Line (DU-145) (IC50 in µM), MTT, 48 h
[5] = read-out: Prostate Cancer Cell Line (DU-145) (IC50 in µM), MTT, 48 h

Compound O=C(/C=C/c1sc(Cl)nc1Cl)c1ccccc1Cl [Compound 1, (E)-1-(2-chlorophenyl)-3-(2,4-dichlorothiazol-5-yl)prop-2-en-1-one] has a melting point of 80 °C, an IC50 [1] greater than 70 µg/mL and an IC50 [2, 4] of 100 ± 2 µM. For the same compound, the MIC [3] was 78.5 ± 1 µM (≈ 25 µg/mL).

O=C(/C=C/c1sc(Cl)nc1Cl)c1cccc(Cl)c1 [Compound 2, (E)-1-(3-chlorophenyl)-3-(2,4-dichlorothiazol-5-yl)prop-2-en-1-one] gave a melting point of 88 °C, an IC50 [1] greater than 70 µg/mL and an IC50 [2, 4] of 1607 ± 2 µM. It also gave an MIC [3] of 313.9 ± 1 µM (≈ 100 µg/mL).

Compound O=C(/C=C/c1sc(Cl)nc1Cl)c1ccc(Cl)cc1 [Compound 3, (E)-1-(4-chlorophenyl)-3-(2,4-dichlorothiazol-5-yl)prop-2-en-1-one] has a melting point of 104 °C, an IC50 [1] greater than 70 µg/mL and an IC50 [2, 4] of 401.8 ± 1 µM. The MIC [3] was 78.5 ± 1 µM (≈ 25 µg/mL).

O=C(/C=C/c1sc(Cl)nc1Cl)c1cccc(Cl)c1Cl [Compound 4, (E)-1-(2,3-dichlorophenyl)-3-(2,4-dichlorothiazol-5-yl)prop-2-en-1-one] showed a melting point of 89 °C, an IC50 [1] greater than 70 µg/mL and an IC50 [2, 4] of 181.3 ± 1 µM. The MIC [3] was 142 ± 2 µM (≈ 50 µg/mL).

Compound O=C(/C=C/c1sc(Cl)nc1Cl)c1cc(Cl)ccc1Cl [Compound 6, (E)-1-(2,5-dichlorophenyl)-3-(2,4-dichlorothiazol-5-yl)prop-2-en-1-one] has a melting point of 84 °C, an IC50 [1] greater than 70 µg/mL and an IC50 [2, 4] of 2900.5 ± 2 µM. The MIC [3] was 141.6 ± 1 µM (≈ 50 µg/mL).

With O=C(/C=C/c1sc(Cl)nc1Cl)c1ccc(Cl)c(Cl)c1 [Compound 8, (E)-1-(3,4-dichlorophenyl)-3-(2,4-dichlorothiazol-5-yl)prop-2-en-1-one] the melting point was 106 °C, the IC50 [1] was greater than 70 µg/mL and the IC50 [2, 4] was 1450.3 ± 1 µM. For the same compound, the MIC [3] was 141.6 ± 1 µM (≈ 50 µg/mL).

O=C(/C=C/c1sc(Cl)nc1Cl)c1ccccc1F [Compound 9, (E)-1-(2-fluorophenyl)-3-(2,4-dichlorothiazol-5-yl)prop-2-en-1-one] showed a melting point of 91 °C, an IC50 [1] greater than 70 µg/mL and an IC50 [2, 4] of 53 ± 2 µM. The “antitubercular activity of F compounds over the Cl-containing compounds” value [3] was 3.79 fold and the MIC [3] was 20.7 ± 2 µM (≈ 6.25 µg/mL).

Work on O=C(/C=C/c1sc(Cl)nc1Cl)c1cccc(F)c1 [Compound 10, (E)-1-(3-fluorophenyl)-3-(2,4-dichlorothiazol-5-yl)prop-2-en-1-one] yielded a melting point of 112 °C, an IC50 [1] greater than 70 µg/mL and an IC50 [2, 4] of 423.6 ± 2 µM. For the same compound, the IC50 [2, 5] was 847.3 ± 2 µM and the MIC [3] was 165.5 ± 1 µM (≈ 50 µg/mL).

Compound O=C(/C=C/c1sc(Cl)nc1Cl)c1ccc(F)cc1 [Compound 11, (E)-1-(4-fluorophenyl)-3-(2,4-dichlorothiazol-5-yl)prop-2-en-1-one] has a melting point of 126 °C, an IC50 [1] greater than 70 µg/mL and an IC50 [2, 4] of 847.3 ± 2 µM. For the same compound, the IC50 [2, 5] was 423.6 ± 2 µM, the “antitubercular activity of F compounds over the Cl-containing compounds” value [3] was 3.79 fold and the MIC [3] was 20.7 ± 2 µM (≈ 6.25 µg/mL). For the same compound, the “Mtb (H37Rv Strain) (MIC in µM)” value [3] was 20.68 ± 1 µM.

Compound O=C(/C=C/c1sc(Cl)nc1Cl)c1ccc(F)cc1F [Compound 12, (E)-1-(2,4-difluorophenyl)-3-(2,4-dichlorothiazol-5-yl)prop-2-en-1-one] has a melting point of 134 °C, an IC50 [1] greater than 70 µg/mL and an IC50 [2, 4] of 100 ± 1 µM. The MIC [3] was 2.43 µM (≈ 0.778 µg/mL), the “Mtb (H37Rv Strain) (MIC in µM)” value [3] was 2.43 ± 1 µM and the “antitubercular potency relative to the standard pyrazinamide” value [3] was 10.42 times.

In the case of O=C(/C=C/c1sc(Cl)nc1Cl)c1cc(F)ccc1F [Compound 13, (E)-1-(2,5-difluorophenyl)-3-(2,4-dichlorothiazol-5-yl)prop-2-en-1-one], the melting point is reported as 129 °C, the IC50 [1] is reported as greater than 70 µg/mL and the IC50 [2, 4] is reported as 3198.7 ± 2 µM. The MIC [3] was 39 ± 1 µM (≈ 12.5 µg/mL).

In the case of O=C(/C=C/c1sc(Cl)nc1Cl)c1c(F)cccc1F [Compound 14, (E)-1-(2,6-difluorophenyl)-3-(2,4-dichlorothiazol-5-yl)prop-2-en-1-one], the melting point is reported as 141 °C, the IC50 [1] is reported as greater than 70 µg/mL and the IC50 [2, 4] is reported as 25 ± 2 µM. The MIC [3] was 9.74 ± 2 µM (≈ 3.12 µg/mL) and the “antitubercular potency relative to the standard pyrazinamide” value [3] was 2.6 times.

With O=C(/C=C/c1sc(Cl)nc1Cl)c1ccc(F)c(F)c1 [Compound 15, (E)-1-(3,4-difluorophenyl)-3-(2,4-dichlorothiazol-5-yl)prop-2-en-1-one] the melting point was 145 °C, the IC50 [1] was greater than 70 µg/mL and the IC50 [2, 4] was 799.7 ± 1 µM. For the same compound, the MIC [3] was 39 ± 1 µM (≈ 12.5 µg/mL).

O=C(/C=C/c1sc(Cl)nc1Cl)c1cc(F)cc(F)c1 [Compound 16, (E)-1-(3,5-difluorophenyl)-3-(2,4-dichlorothiazol-5-yl)prop-2-en-1-one] showed a melting point of 109 °C, an IC50 [1] greater than 70 µg/mL and an IC50 [2, 4] of 3198.7 ± 1 µM. It also gave an MIC [3] of 156 ± 2 µM (≈ 50 µg/mL).

Work on O=C(/C=C/c1sc(Cl)nc1Cl)c1ccccn1 [Compound 17, (E)-3-(2,4-dichlorothiazol-5-yl)-1-(pyridin-2-yl)prop-2-en-1-one] yielded a melting point of 156 °C, an IC50 [1] greater than 70 µg/mL and an IC50 [2, 4] of 14 ± 1 µM. It also gave an MIC [3] of 350.7 ± 2 µM (≈ 100 µg/mL).

With O=C(/C=C/c1sc(Cl)nc1Cl)c1cccnc1 [Compound 18, (E)-3-(2,4-dichlorothiazol-5-yl)-1-(pyridin-3-yl)prop-2-en-1-one] the melting point was 162 °C, the IC50 [1] was greater than 70 µg/mL and the IC50 [2, 4] was 28.1 ± 1 µM. It also gave an MIC [3] of 701.4 ± 1 µM (≈ 200 µg/mL).

With O=C(/C=C/c1sc(Cl)nc1Cl)c1ccncc1 [Compound 19, (E)-3-(2,4-dichlorothiazol-5-yl)-1-(pyridin-4-yl)prop-2-en-1-one] the melting point was 177 °C, the IC50 [1] was greater than 70 µg/mL and the IC50 [2, 4] was 14 ± 1 µM. For the same compound, the MIC [3] was 350.7 ± 2 µM (≈ 100 µg/mL).

In the case of O=C(/C=C/c1sc(Cl)nc1Cl)c1nccs1 [Compound 20, (E)-3-(2,4-dichlorothiazol-5-yl)-1-(thiazol-2-yl)prop-2-en-1-one], the melting point is reported as 127 °C, the IC50 [1] is reported as greater than 70 µg/mL and the IC50 [2, 4] is reported as 6.86 ± 1 µM. It also gave an MIC [3] of 343.4 ± 1 µM (≈ 100 µg/mL).

For CN(Cc1cnc2nc(N)nc(N)c2n1)c1ccc(C(=O)N[C@@H](CCC(=O)O)C(=O)O)cc1 [Methotrexate, reference compound], the IC50 [1] was greater than 70 µg/mL and the IC50 [2, 4] was 11 ± 1 µM.

For NC(=O)c1cnccn1 [Pyrazinamide, reference compound], the MIC [3] was 25.3 µM (≈ 3.12 µg/mL) and the “Mtb (H37Rv Strain) (MIC in µM)” value [3] was 25.34 ± 2 µM.

With “(E)-1-(2,4-dichlorophenyl)-3-(2,4-dichlorothiazol-5-yl)prop-2-en-1-one [Compound 5]” the “Normal Liver Cell Line (L02) (IC50 in µg/mL)” value ([1]; same protocol as DU-145) was greater than 70 µg/mL, the IC50 [2, 5] was 90.6 ± 1 µM and the “Mtb (H37Rv Strain) (MIC in µM)” value [3] was 35.40 ± 2 µM.
